How the values were obtained:
Type in all cases: cell-based, human
[1] = tested on: CD4+ clone 436/B6.37 (B6/37); experiment: IFN-γ/TNF production by CD4+ clone B6/37 (clone 37) stimulated with peptide- or protein-pulsed EBV-B cells; details: for TNF-α and IFN-γ production by clone B6/37: more physiologic or lower peptide concentrations
Procedure: The microcultures that contained proliferating CD4^+ T cells were assessed around 35 days after the start of the culture for their capacity to produce TNF and/or IFN-γ when stimulated with autologous EBV-B cells pulsed with the His-MAGE-A3 protein. Autologous EBV-B cells (500,000/ml) were incubated for 18-20 hours at 37° C. in the presence of 20 μg/ml of His-MAGE-A3 protein, or Ovalbumin (Sigma) as a negative control. EBV-B cells referred to herein are B cells which were immortalized with Epstein Barr virus. The EBV-B cells were prepared according to art-standard procedures. Protein-pulsed EBV-B cells were washed and added at 5,000 per round-bottomed microwell to 2,500 CD4^+ T lymphocytes in 150 μl of complete Iscove's medium supplemented with L-glutamine, L-arginine, L-asparagine, 10% human serum and IL-2 (25 U/ml). After 18-20 hours, supernatants were harvested and assessed for TNF content by testing the cytotoxic effect of the supernatants on TNF-sensitive WEHI 164 clone 13 cells as previously described (Espevik and Nissen-Meyer, J. Immunol. Methods 95:99-105, 1986) in a MTT colorimetric assay as previously described (Hansen et al., J. Immunol. Methods 119:203-210, 1989; Traversari et al., Immunogenetics 35:145-152, 1992). IFN-γ production was measured using an ELISA assay developed in our laboratory (see below) with reagents from Medgenix Diagnostics-Biosource (Fleurus, Belgium). Inhibition with mAbs W6/32 (anti-HLA class I) or 2B6 (anti-HLA-DR) was performed by addition of a 1/20 dilution of ascites during the experiment. Cytokine secretion in response to autologous EBV-B cells pulsed with MAGE-A3 was considered significant if it was at least twofold above the background response of T cells to EBV-B cells pulsed with ovalbumin, and if it exceeded 500 pg of IFN-γ or 50 pg/ml of TNF per ml.
In order to identify the MAGE-A3 peptides recognized by these CD4^+ clones, 16 amino acid peptides, corresponding to parts of the MAGE-A3 protein sequence were synthesized, loaded on the autologous EBV-B cells and tested for recognition (FIGS. 4 and 5). Peptides were synthesized using F-moc for transient NH2-terminal protection and were characterized using mass spectrometry. […] Lyophilized synthetic peptides were dissolved in DMSO (Merck) and used at a final concentration of 500 μM, 50 μM or 5 μg/ml. EBV-B cells (5,000 per round-bottomed microwell) were incubated 2 hours at 37° C., 8% CO2 in the presence of the different peptides, the indicated concentrations representing the peptide concentration during the incubation step. CD4^+ clones were then added at 2,500 cells per well. Assay medium was Iscove's medium supplemented with L-glutamine, L-arginine, L-asparagine, 10% human serum and IL-2 (25 U/ml). After 18-20 hours, supernatants were harvested and assessed for TNF-α and/or IFN-γ secretion. IFN-γ production was measured using an ELISA test (20-4000 pg/ml) developed in the laboratory with reagents from Medgenix Diagnostics-Biosource (Fleurus, Belgium).
To further define the HLA-restriction element utilized by clone B6/37, additional EBV-B cell lines were used for peptide presentation as described above (FIG. 7).
Unlike HLA-class I-restricted peptides, class II-restricted peptides usually vary in length and tolerate extensions at both the amino and carboxy termini, because they are not fixed by their ends in the groove. It is therefore difficult to define precisely the length of the antigenic peptide. Therefore a large number of MAGE-A3 peptides were tested at different concentrations (Tables IV and V). […] 2500 cells of clone 37 were then cocultured for 20 h in round-bottomed microwells with 5000 peptide-pulsed cells. IFN-γ released in the supernatant of the cocultures was measured in an ELISA assay. The experiments were performed in triplicate.

[2] = tested on: CD4+ clone 436/B6.34 (B6/34); experiment: TNF/IFN-γ production by CD4+ clone B6/34 stimulated with peptide-pulsed EBV-B cells; details: for TNF-α and IFN-γ production by clone B6/34: more physiologic or lower peptide concentrations
Procedure: In order to identify the MAGE-A3 peptides recognized by these CD4^+ clones, 16 amino acid peptides, corresponding to parts of the MAGE-A3 protein sequence were synthesized, loaded on the autologous EBV-B cells and tested for recognition (FIGS. 4 and 5). Peptides were synthesized using F-moc for transient NH2-terminal protection and were characterized using mass spectrometry. All peptides were >80% pure as indicated by analytical HPLC. Lyophilized synthetic peptides were dissolved in DMSO (Merck) and used at a final concentration of 500 μM, 50 μM or 5 μg/ml. EBV-B cells (5,000 per round-bottomed microwell) were incubated 2 hours at 37° C., 8% CO2 in the presence of the different peptides, the indicated concentrations representing the peptide concentration during the incubation step. CD4^+ clones were then added at 2,500 cells per well. Assay medium was Iscove's medium supplemented with L-glutamine, L-arginine, L-asparagine, 10% human serum and IL-2 (25 U/ml). After 18-20 hours, supernatants were harvested and assessed for TNF-α and/or IFN-γ secretion. IFN-γ production was measured using an ELISA test (20-4000 pg/ml) developed in the laboratory with reagents from Medgenix Diagnostics-Biosource (Fleurus, Belgium).

B6 clones = experiment: Proliferation of B6 clones induced by peptide-pulsed autologous EBV-B cells; details: autologous EBV-B cells pulsed with peptide (FIG. 6)
[3] = EBV-B cell line BM16, DR13 negative
[4] = EBV-B cell line BOB, DR13 negative
[5] = EBV-B cell line BOLETH, DR13 negative
[6] = EBV-B cell line LB1118, DR13 positive
[7] = EBV-B cell line LB1555, DR13 positive
[8] = EBV-B cell line LB1622, DR13 positive
[9] = EBV-B cell line LKT3, DR13 negative
[10] = EBV-B cell line MZ2, DR13 positive
[11] = EBV-B cell line OLGA, DR13 negative
[12] = EBV-B cell line OMW, DR13 positive
[13] = EBV-B cell line RML, DR13 negative
[14] = EBV-B cell line RSH, DR13 negative
[15] = EBV-B cell line TAB089, DR13 negative
[16] = EBV-B cell line TISI, DR13 negative
[17] = EBV-B cell line VAF, DR13 negative
[18] = EBV-B cell line VET, DR13 negative

Substance	activation of clone B6/37 by 16 amino acid peptides [1]	IFN-γ production by clone B6/37 stimulated by peptide [1, 3] [pg/mL]	IFN-γ production by clone B6/37 stimulated by peptide [1, 4] [pg/mL]	IFN-γ production by clone B6/37 stimulated by peptide [1, 5] [pg/mL]	IFN-γ production by clone B6/37 stimulated by peptide [1, 6] [pg/mL]	IFN-γ production by clone B6/37 stimulated by peptide [1, 7] [pg/mL]	IFN-γ production by clone B6/37 stimulated by peptide [1, 8] [pg/mL]	IFN-γ production by clone B6/37 stimulated by peptide [1, 9] [pg/mL]	IFN-γ production by clone B6/37 stimulated by peptide [1, 10] [pg/mL]	IFN-γ production by clone B6/37 stimulated by peptide [1, 11] [pg/mL]	IFN-γ production by clone B6/37 stimulated by peptide [1, 12] [pg/mL]	IFN-γ production by clone B6/37 stimulated by peptide [1, 13] [pg/mL]	IFN-γ production by clone B6/37 stimulated by peptide [1, 14] [pg/mL]	IFN-γ production by clone B6/37 stimulated by peptide [1, 15] [pg/mL]	IFN-γ production by clone B6/37 stimulated by peptide [1, 16] [pg/mL]	IFN-γ production by clone B6/37 stimulated by peptide [1, 17] [pg/mL]	IFN-γ production by clone B6/37 stimulated by peptide [1, 18] [pg/mL]	TNF-α and IFN-γ production by clone B6/37 [1]	activation of clone B6/34 by 16 amino acid peptides [2]	TNF-α and IFN-γ production by clone B6/34 [2]	further results
RKVAELVHFLLLKYRA (listed as Homo sapiens) [MAGE-A3111-126]	stimulated specifically	99	128	77	3761	>4000	1731	6	3429	117	>4000	134	140	52	119	62	105	stimulated specifically	stimulated specifically	stimulated specifically	proliferation of the B6 clones (B6 clones): able to induce the proliferation
ELVHFLLLKYRAREPV (listed as Homo sapiens) [MAGE-A3115-130]	stimulated specifically	120	101	67	3909	>4000	1349	27	3096	68	>4000	129	87	55	179	178	135	stimulated specifically	stimulated specifically	stimulated specifically	proliferation of the B6 clones (B6 clones): able to induce the proliferation
MAGE-A3107-122: 16 amino acid synthetic peptide corresponding to residues 107-122 of the MAGE-A3 protein (AALSRKVAELVHFLLL; UniProt P43357 107-122, looked up, fragment)	unable to activate																		unable to activate		

Reference: patent US6716809B1, “Mage-A3 peptides presented by HLA class molecules” (priority 1997, dated 2004)
